Measurements published in patent US7192949B2, “Substituted bicyclic pyrimidinones as a mitotic kinesin KSP inhibitors” (Merck & Co., Inc., priority 2001, dated 2007).

Target: T1, human KSP motor domain (KSP(367H)) (Homo sapiens, UniProt P52732)
T1 construct: were used to amplify the motor domain and the neck linker region; made in house; host or cells: E. coli BL21 (DE3), pRSETa vector
T1 sequence (P52732 18-359 limits assumed): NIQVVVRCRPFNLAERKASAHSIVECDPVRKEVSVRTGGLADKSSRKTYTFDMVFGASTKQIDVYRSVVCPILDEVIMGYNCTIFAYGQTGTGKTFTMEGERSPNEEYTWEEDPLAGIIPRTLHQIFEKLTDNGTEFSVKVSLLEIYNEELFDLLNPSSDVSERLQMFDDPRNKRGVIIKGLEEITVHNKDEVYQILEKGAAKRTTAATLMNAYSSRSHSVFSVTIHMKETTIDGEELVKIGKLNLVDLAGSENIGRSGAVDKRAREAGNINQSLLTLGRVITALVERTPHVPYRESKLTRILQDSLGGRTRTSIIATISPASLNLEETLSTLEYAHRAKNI
Assay: Kinesin ATPase In Vitro Assay
Assay type: biochemical
Conditions: kinesin motor domain with microtubules, 1 mM ATP, 23° C.; free phosphate by quinaldine red/ammonium molybdate, absorbance 540 nm
Text: I. Kinesin ATPase In Vitro Assay
Cloning and Expression of Human Poly-Histidine Tagged KSP Motor Domain (KSP(367H))
Plasmids for the expression of the human KSP motor domain construct were cloned by PCR using a pBluescript full length human KSP construct (Blangy et al., Cell, vol.83, pp 1159–1169, 1995) as a template. The N-terminal primer 5′-[…] (SEQ.ID.NO.: 1) and the C-terminal primer 5′-[…] […] (SEQ.ID.NO.: 2) were used to amplify the motor domain and the neck linker region. The PCR products were digested with AseI and XhoI, ligated into the NdeI/XhoI digestion product of pRSETa (Invitrogen) and transformed into E. coli BL21 (DE3).
Cells were grown at 37° C. to an OD600 of 0.5. […]
The kinesin motor domain is incubated with microtubules, 1 mM ATP (1:1 MgCl2: Na-ATP), and compound at 23° C. in buffer containing 80 mM K-HEPES (pH 7.0), 1 mM EGTA, 1 mM DTT, 1 mM MgCl2, and 50 mM KCl. […] Free phosphate from the ATP hydrolysis reaction is measured via a quinaldine red/ammonium molybdate assay by adding 150 μl of quench C buffer containing a 2:1 ratio of quench A:quench B. Quench A contains 0.1 mg/ml quinaldine red and 0.14% polyvinyl alcohol; quench B contains 12.3 mM ammonium molybdate tetrahydrate in 1.15 M sulfuric acid. The reaction is incubated for 10 minutes at 23° C., and the absorbance of the phospho-molybdate complex is measured at 540 nm.

CCC(c1nc2c(c(=O)n1Cc1ccccc1)CCC2)N(CCN(C)C)C(=O)c1ccc(Br)cc1 (stereo not shown) [1-5, N-[1-(3-benzyl-4-oxo-4,5,6,7-tetrahydro-3H-cyclopenta[d]pyriinidin-2-yl)propyl]-4-bromo-N-[2-(dimethylamino)ethyl]benzamide]
IC50: ≤ 50 µM
